Reference: patent US9034624B2, “Process for the synthesis of conjugates of glycosaminoglycanes (GAG) with biologically active molecules, polymeric conjugates and relative uses thereof” (FIDIA FARMACEUTICI S.P.A., priority 2009, dated 2015)

Tests used:
[1] = cited from earlier work
[2] = glucose levels in blood, streptozocin-induced diabetes type I model; type: in vivo, rat; conditions: for effect on glucose level in the blood: diabetic rats (streptozocin 70 mg/Kg), conjugate subcutaneous
Method: 3.00 g of the aldehyde derivative of HA (activated intermediate) according to Example 1 are dissolved at a concentration of 10 mg/ml in an acid environment by the presence of phosphoric acid at a temperature of 60° C. for 2 hours. 4×10^−5 moles of insulin, 4×10^−1 moles of cyanoborohydride are added to the hydrolyzed product previously cooled and the pH is regulated to 6.0. After 24 h of reaction, the adduct is purified and analyzed via dimensional exclusion chromatography; the relative chromatogram is visible in FIG. 8. The activity in vivo of the conjugate is evaluated on a model of induced diabetes type I in a rat after administration of streptozocin at a dose of 70 mg/Kg.
The HA-Insulin conjugate is administered subcutaneously at a dose of 5 or 20 μg of equivalent insulin. The biological activity of the conjugate is tested through the determination of the glucose levels in the blood of animals, measured by means of commercial kits (OneTouch® II, LifeScan, Johnson & Johnson), The control consists of healthy rats (group 1) and rats with induced diabetes treated with insulin (group 2). The results are illustrated in FIG. 9.

[3] = tested on: cyclic 2′,3′-cytidine monophosphate (2′,3′-CMC); test: residual enzymatic activity of RNAse A, free or bound to HA (absorption increase at 287 nm); type: biochemical; conditions: hydrolysis of 2′,3′-CMC, absorption at 287 nm
Method: 1.00 g of the aldehyde derivative of HA according to Example 1 are dissolved at a concentration of 8 mg/ml in an acid environment by the presence of phosphoric acid at a temperature of 50° C. for 2 hours. The pH is regulated to 6.0 and 2×10^−5 moles of RNAse A and 2×10^−1 moles of cyanoborohydride are added to the hydrolyzed product previously cooled. At this pH the reaction takes place specifically at the N-terminal end of the protein. After 24 h of reaction, the adduct is purified by dialysis against water and then freeze-dried. The corresponding GPC chromatogram registered under the conditions described in Example 14 can be found in FIG. 7. This type of conjugate is optimally suitable for measuring in vitro the residual activity of the enzyme, using a specific kit based on the evaluation of the absorption increase at 287 nm with time, determined by hydrolysis of the specific synthetic substrate cyclic 2′,3′-cytidine monophosphate (2′,3′-CMC).
A comparison of the residual activity of the enzyme, free or bound to HA, produces the following results: […]

## Calcitonin
[1]
  absorption half-life: 10 to 15 min
  elimination half-life: 50 to 80 min

## HA-Insulin: hyaluronic acid aldehyde derivative conjugated to insulin
[2]; 5 or 20 μg equivalent insulin
  effect on glucose level in the blood: exerted more slowly, but has a considerably prolonged duration with time
[2]; diabetic rats, subcutaneous
  effectiveness relative to the conjugated drug (insulin): doubling the effectiveness
[2]; diabetic rats, subcutaneous, 5 or 20 μg equivalent insulin
  time span to bring glucose to a lower level than the group treated with insulin alone: ≤ 5 h
[2]; diabetic rats, subcutaneous, duration of the experiment
  duration for which the glucose lowering effect is maintained: 24 h

## insulin: free insulin, control treatment of diabetic rats [reference compound]
[2]; 5 or 20 μg equivalent insulin
  effect on glucose level in the blood: sudden decrease in the glucose level in the blood, which however returns to high values in a relatively rapid time scale

B1: RNAsi A: free enzyme RNAse A (protein, UniProt P61823 27-150, looked up)
Ribonuclease pancreatic: KETAAAKFERQHMDSSTSAASSSNYCNQMMKSRNLTKDRCKPVNTFVHESLADVQAVCSQKNVACKNGQTNCYQSYSTMSITDCRETGSSKYPNCAYKTTQANKHIIVACEGNPYVPVHFDASV
[3]
  % Relative enzymatic activity: 100%

B2: HA-Ac-RNAsi A: hyaluronic acid aldehyde derivative conjugated to RNAse A at the N-terminal end (conjugate, UniProt P61823 27-150, looked up)
Ribonuclease pancreatic: B1 Ribonuclease pancreatic
modifications: hyaluronic acid aldehyde conjugate
notes: hyaluronic acid aldehyde derivative conjugated to RNAse A at the N-terminal end
[3]
  % Relative enzymatic activity: 95.23%
